From US9511070B2, “Heterocyclyl carboxamides for treating viral diseases” (NOVADRUG, LLC, priority 2012, dated 2016)
“Also recorded” adds a separate entry of the source.

Assays:
[1] = system: Bovine Viral Diarrhea Virus strain NADL; assay: Anti-BVDV efficacy, cytopathic (CPE) assay in Bovine Turbinate cells (MTT); type: cell-based; settings: cell survival at 10 μM compared to untreated control; TABLE 4(a)
Protocol: Assay for Anti-BVDV efficacy. Bovine Turbinate (BT) cells maintained as monolayers in disposable cell culture labware are used for the antiviral efficacy test. Prior to testing, host cell cultures are seeded onto the 96-well cell culture plates and used approximately 48 hours after seeding. […] The growth medium (GM) and maintenance medium (MM) include Dulbecco's Modified Eagle Media (DMEM) with L-glutamine (ATCC #30-2002), 10% Horse serum and penicillin/streptomycin (10,000 units of penicillin and 10,000 μg of streptomycin per mL, Life Technologies #15140-122 or similar) for a final concentration of 100 units penicillin and 100 μg streptomycin in the medium. Bovine Viral Diarrhea Virus strain NADL from BSLI high-titer virus stock is used. Prior to use, aliquots of the stock virus are removed and thawed from a −70° C. freezer. The BVDV is diluted in a maintenance medium (MM) to obtain 0.1 Multiplicity of Infection (MOI). Cytopathic (CPE) assay. CPE refers to degenerative changes in BT tissue culture induced by BVDV as a consequence of its multiplication. BT cell cultures are washed with PBS, and 100 μL aliquots of MM are added to the cells and incubated in a CO2 incubator for 2 hours. After incubation, the MM is removed; the cells washed again with PBS and overlaid with 100 μL of the different concentrations of test compounds. The plates are incubated in a CO2 incubator for 48 to 72 hours. […] This assay is a colorimetric assay that measures the activity of enzymes that reduce MTT to the purple color formazan dye. CPE is confirmed using an Inverted Compound Microscope.

[2] = system: JFH-1 HCV; settings: viral titer at 5 μM or 15 μM compared to untreated control
From the text: In vitro assay for anti-HCV efficacy. HCV studies typically involve infected patients and chimpanzees. However, recently, a robust HCV infection system was developed with cells derived from the Huh-7 human hepatoma cell line. It is based on the unique JFH-1 HCV consensus cDNA derived from an HCV patient. Using reverse genetics, the infectious virus can be rescued from this HCV clone. The recovered viable JFH virus can be passaged serially in Huh-7 cells. For this reason, this system is amenable for evaluating the activity of test compound for their anti-HCV efficacy.
(§1) Briefly, 6×10^3 Huh7-1 cells are incubated overnight in each well of collagen-coated BioCoat 96-well plates (BD Biosciences, Bedford, Mass.) in 0.2 ml 10% medium composed of Dulbecco's modified Eagle's medium supplemented with 10% fetal bovine serum. Subsequently, at 2 day intervals, the cultures are replenished with fresh 0.2 ml 10% medium. After the cultures become confluent, they continue to be replenished at 2 day intervals with fresh 0.2 ml 10% medium that also includes 1% dimethyl sulfoxide (DMSO). After 20 days of these replenishments, the Huh7-1 cultures are incubated with fresh 1% medium (same as 10% medium except that the serum level is 1%) containing HCV at a multiplicity of infection (MOI) of 0.05 focus forming units (ffu)/cell. The HCV (JFH-lwt Huh7) stock titer is 1.5×10^5 ffu/mL. The next day (day 1 post-infection) and 2 days later (day 3 post-infection) the media are replenished with fresh 1% medium containing the test compounds dissolved in DMSO. On the 5th day of treatment with the compounds, cell lysates are collected for RNA isolation and Real Time-quantitative Reverse Transcription Polymerase Chain Reaction (RT-qPCR) and culture media are collected for cytotoxicity analysis.
(§2) Total RNA is isolated from cells by the guanidine thiocyanate method using standard protocols. One μg RNA is used for cDNA synthesis using TaqMan reverse transcription reagents (Applied Biosystems, Foster City, Calif.) followed by real-time PCR using an Applied Biosystems 7300 real-time thermocycler. Thermal cycling consists of initial denaturation of 10 min at 95° C. followed by 40 cycles of denaturation (15 s at 95° C.) and annealing/extension (1 m at 60° C.). HCV and human glyceraldehyde-3-phosphate dehydrogenase (GAPDH) RNA levels are determined relative to a standard curve of serial dilutions of plasmid containing JFH-1 HCV or GAPDH cDNA. The PCR primers used to detect GAPDH and HCV are: GAPDH (NMX002046) 5′-[…]-3′(SEQ ID NO: 16) (sense) and 5′-[…]-3′(SEQ ID NO: 17) (anti-sense) JFH-1 HCV (AB047639) 5′-[…]-3′(SEQ ID NO: 18) (sense) and 5′-[…]-3′(SEQ ID NO: 19) (anti-sense).

[3] = system: JFH-1 HCV; assay: Co-therapy treatment for HCV infection (intracellular HCV RNA, with and without IFN-β-1b); type: cell-based, Hepatitis C virus; settings: for Fold Inhibition: vs untreated control
Protocol: as §1, §2
Co-therapy Treatment for HCV Infection. […] The compounds described herein are tested to determine whether they increase the efficacy of either RBV, IFN-β-1b, or a combination thereof. Using the protocol described for determining chemical-evoked reduction in intracellular HCV RNA, the cells are treated with and without 10 U/mL IFN-β-1b in combination with 2.5 or 10 μM of the compounds described herein and for comparison with 10 μM MA and 80 μM RBV.

| SMILES | HCV Antiviral Activity [2] | also measured |
| --- | --- | --- |
| COc1cccc(CN2CCC(C(=O)Nc3ccc(-c4nc5ccccc5[nH]4)cc3)CC2)c1 [Example 58] | ++ (“++” corresponds to ≦60% viral titer at 5 μM) | BVDV Antiviral Activity [1]: +++ (“+++” corresponds to ≧75 cell survival at 10 μM) |
| NC(=O)c1ncn([C@@H]2O[C@H](CO)[C@@H](O)[C@H]2O)n1 [RBV, ribavirin, reference compound] |  | Average HCV copies/μg RNA ([3]; 80 μM +IFN-β-1b (10 U/mL)): 1.8 × 10^5 copies/μg RNA; Fold Inhibition ([3]; 80 μM +IFN-β-1b (10 U/mL)): 52 fold; Average HCV copies/μg RNA ([3]; 80 μM, alone): 5.0 × 10^6 copies/μg RNA; Fold Inhibition ([3]; 80 μM, alone): 2 fold |
| O=C(Nc1cccc(-c2cccc(F)c2)c1)C1CCN(Cc2cccc3cccnc23)CC1 [Example 16] | ++ (“++” corresponds to ≦60% viral titer at 5 μM) | Average HCV copies/μg RNA ([3]; 2.5 μM +IFN-β-1b (10 U/mL)): 1.1 × 10^5 copies/μg RNA; Fold Inhibition ([3]; 2.5 μM +IFN-β-1b (10 U/mL)): 85 fold; Average HCV copies/μg RNA ([3]; 2.5 μM, alone): 3.3 × 10^6 copies/μg RNA; Fold Inhibition ([3]; 2.5 μM, alone): 3 fold; Average HCV copies/μg RNA ([3]; 10 μM +IFN-β-1b (10 U/mL)): 9.6 × 10^4 copies/μg RNA; Fold Inhibition ([3]; 10 μM +IFN-β-1b (10 U/mL)): 97 fold; Average HCV copies/μg RNA ([3]; 10 μM, alone): 2.0 × 10^6 copies/μg RNA; Fold Inhibition ([3]; 10 μM, alone): 5 fold; reduction of intracellular HCV RNA levels by the combination with IFN-β-1b (in words) ([3]; combination with IFN-β-1b): more effective than that achieved with RBV; also recorded: reduces intracellular HCV RNA levels more effectively than either agent alone |
| Cc1c[nH]c2ncnc(N3CCC(C(=O)Nc4cccc(-c5cc6ccccc6[nH]5)c4)CC3)c12 [Example 100] |  | BVDV Antiviral Activity [1]: +++ (“+++” corresponds to ≧75 cell survival at 10 μM) |
| Cc1c[nH]c2ncnc(N3CCC(C(=O)Nc4cccc(Br)c4)CC3)c12 [Example 103] |  | BVDV Antiviral Activity [1]: + (“+” corresponds to ≦50 cell survival at 10 μM, and improved survival over untreated control) |
| O=C(Nc1cccc(-c2cc3ccccc3[nH]2)c1)C1CCN(C(=O)c2cncs2)CC1 [Example 60] | + (“+” corresponds to ≦60% viral titer at 15 μM) | BVDV Antiviral Activity [1]: +++ (“+++” corresponds to ≧75 cell survival at 10 μM) |
| Cc1c[nH]c2ncnc(N3CCC(C(=O)Nc4cccc(-c5cccc(F)c5)c4)CC3)c12 [Example 102] |  | BVDV Antiviral Activity [1]: +++ (“+++” corresponds to ≧75 cell survival at 10 μM) |
| CCc1ccc(CN2CCC(C(=O)Nc3ccc(-c4nc5ccccc5[nH]4)cc3)CC2)o1 [Example 59] | ++ (“++” corresponds to ≦60% viral titer at 5 μM) | BVDV Antiviral Activity [1]: ++ (“++” corresponds to >50 but <75 cell survival at 10 μM) |
| COc1cccc(-c2ccccc2NC(=O)C2CCN(CCC(C)c3ccccc3)CC2)c1 (stereo not drawn) [Example 36] | + (“+” corresponds to ≦60% viral titer at 15 μM) |  |
| O=C(Nc1cccc(-c2ccco2)c1)C1CCN(C(=O)CCc2ccco2)CC1 [Example 53] | − (“−” corresponds to >60% viral titer at 15 μM (highest concentration tested)) |  |
| Cc1ccc(CN2CCC(C(=O)Nc3cccc(-c4cc5ccccc5[nH]4)c3)CC2)o1 [Example 45] | − (“−” corresponds to >60% viral titer at 15 μM (highest concentration tested)) |  |
| O=C(Nc1ccc(Oc2ccccc2)nc1)C1CCN(Cc2ccc(Cl)s2)CC1 [Example 83] | ++ (“++” corresponds to ≦60% viral titer at 5 μM) |  |
| COc1cccc(-c2ccccc2NC(=O)C2CCN(Cc3nc(C)c(C)nc3C)CC2)c1 [Example 87] | ++ (“++” corresponds to ≦60% viral titer at 5 μM) |  |
| COc1ccc(CN2CCC(C(=O)Nc3ccc(Oc4ccccc4F)cc3)CC2)c(O)c1 [Example 21] | +++ (“+++” corresponds to ≦30% viral titer at 5 μM) |  |
| CCOc1ccc(CN2CCC(C(=O)Nc3ccccc3-c3cccc(OC)c3)CC2)cc1 [Example 48] | − (“−” corresponds to >60% viral titer at 15 μM (highest concentration tested)) |  |
| O=C(Nc1cccc(-c2ccn[nH]2)c1)C1CCN(Cc2cccc3ccccc23)CC1 [Example 43] | − (“−” corresponds to >60% viral titer at 15 μM (highest concentration tested)) |  |
| COc1cccc(CN2CCC(C(=O)Nc3ccccc3-c3cccc(OC)c3)CC2)c1 [Example 33] | + (“+” corresponds to ≦60% viral titer at 15 μM) |  |
| Cc1c[nH]c2ncnc(N3CCC(C(=O)Nc4ccc(Oc5ccccc5F)cc4)CC3)c12 [Example 101] |  | BVDV Antiviral Activity [1]: ++ (“++” corresponds to >50 but <75 cell survival at 10 μM) |
| O=C(Nc1cccc(-c2cccc(Cl)c2)c1)C1CCN(Cc2ccc(O)cc2)CC1 [Example 31] | + (“+” corresponds to ≦60% viral titer at 15 μM) |  |
| CC(C)Cc1cc(CN2CCC(C(=O)Nc3ccc(Oc4ccccc4F)cc3)CC2)n[nH]1 [Example 86] | + (“+” corresponds to ≦60% viral titer at 15 μM) |  |
| COc1cccc(-c2ccccc2NC(=O)C2CCN(Cc3ccccc3OC)CC2)c1 [Example 25] | ++ (“++” corresponds to ≦60% viral titer at 5 μM) |  |
| Cc1nnc(-c2cccc(NC(=O)C3CCN(C(=O)c4ccco4)CC3)c2)s1 [Example 41] | + (“+” corresponds to ≦60% viral titer at 15 μM) |  |
| O=C(Nc1cccc(-c2cccc(F)c2)c1)C1CCN(Cc2ccc(O)cc2)CC1 [Example 26] | ++ (“++” corresponds to ≦60% viral titer at 5 μM) |  |
| CSCCCN1CCC(C(=O)Nc2cccc(-c3cc4ccccc4[nH]3)c2)CC1 [Example 46] | − (“−” corresponds to >60% viral titer at 15 μM (highest concentration tested)) |  |
| Cc1nn(C(C)C)c(C)c1CN1CCC(C(=O)Nc2cccc(-c3cccc(F)c3)c2)CC1 [Example 76] | ++ (“++” corresponds to ≦60% viral titer at 5 μM) |  |
| O=C(Nc1cccc(-c2cscn2)c1)C1CCN(Cc2cccc(-c3ccco3)c2)CC1 [Example 35] | + (“+” corresponds to ≦60% viral titer at 15 μM) |  |
| CCn1cc(CN2CCC(C(=O)Nc3cccc(-c4cccc(Cl)c4)c3)CC2)cn1 [Example 78] | ++ (“++” corresponds to ≦60% viral titer at 5 μM) |  |
| CC(C)n1cc(CN2CCC(C(=O)Nc3cccc(-c4cccc(Cl)c4)c3)CC2)cn1 [Example 82] | + (“+” corresponds to ≦60% viral titer at 15 μM) |  |
| CCc1nc(CN2CCC(C(=O)Nc3cccc(-c4cccc(F)c4)c3)CC2)c(C)[nH]1 [Example 68] | + (“+” corresponds to ≦60% viral titer at 15 μM) |  |
| Cc1c[nH]c2ncnc(N3CCC(C(=O)Nc4ccc(-c5nc6ccccc6[nH]5)cc4)CC3)c12 [Example 99] |  | BVDV Antiviral Activity [1]: +++ (“+++” corresponds to ≧75 cell survival at 10 μM) |
